The numbers were not newly measured in US8232305B2, “Anti-microbial compositions” (BASF SE, priority 2006, dated 2012), which cites them from elsewhere.

The series concerns cocci, rods and fungi. The settings on record: Pernak et al., 226th ACS National Meeting 2003; cited from earlier work.

As for `CCCCCCCCOC[n+]1ccn(C)c1.F[B-](F)(F)F` [1-methyl-3-octyloxymethylimidazolium tetrafluoroborate], the “effectiveness against cocci, rods and fungi” value is given as “the most effective of the ionic liquids tested”.
